Drawing on BindingDB's records for patent US11897898 (Biogen Ma, 2024), this text covers IC50 for two compounds.

The target in the test is T1, Mitogen-activated protein kinase kinase kinase 5 (Homo sapiens, UniProt Q99683).
T1 sequence (Q99683 whole entry): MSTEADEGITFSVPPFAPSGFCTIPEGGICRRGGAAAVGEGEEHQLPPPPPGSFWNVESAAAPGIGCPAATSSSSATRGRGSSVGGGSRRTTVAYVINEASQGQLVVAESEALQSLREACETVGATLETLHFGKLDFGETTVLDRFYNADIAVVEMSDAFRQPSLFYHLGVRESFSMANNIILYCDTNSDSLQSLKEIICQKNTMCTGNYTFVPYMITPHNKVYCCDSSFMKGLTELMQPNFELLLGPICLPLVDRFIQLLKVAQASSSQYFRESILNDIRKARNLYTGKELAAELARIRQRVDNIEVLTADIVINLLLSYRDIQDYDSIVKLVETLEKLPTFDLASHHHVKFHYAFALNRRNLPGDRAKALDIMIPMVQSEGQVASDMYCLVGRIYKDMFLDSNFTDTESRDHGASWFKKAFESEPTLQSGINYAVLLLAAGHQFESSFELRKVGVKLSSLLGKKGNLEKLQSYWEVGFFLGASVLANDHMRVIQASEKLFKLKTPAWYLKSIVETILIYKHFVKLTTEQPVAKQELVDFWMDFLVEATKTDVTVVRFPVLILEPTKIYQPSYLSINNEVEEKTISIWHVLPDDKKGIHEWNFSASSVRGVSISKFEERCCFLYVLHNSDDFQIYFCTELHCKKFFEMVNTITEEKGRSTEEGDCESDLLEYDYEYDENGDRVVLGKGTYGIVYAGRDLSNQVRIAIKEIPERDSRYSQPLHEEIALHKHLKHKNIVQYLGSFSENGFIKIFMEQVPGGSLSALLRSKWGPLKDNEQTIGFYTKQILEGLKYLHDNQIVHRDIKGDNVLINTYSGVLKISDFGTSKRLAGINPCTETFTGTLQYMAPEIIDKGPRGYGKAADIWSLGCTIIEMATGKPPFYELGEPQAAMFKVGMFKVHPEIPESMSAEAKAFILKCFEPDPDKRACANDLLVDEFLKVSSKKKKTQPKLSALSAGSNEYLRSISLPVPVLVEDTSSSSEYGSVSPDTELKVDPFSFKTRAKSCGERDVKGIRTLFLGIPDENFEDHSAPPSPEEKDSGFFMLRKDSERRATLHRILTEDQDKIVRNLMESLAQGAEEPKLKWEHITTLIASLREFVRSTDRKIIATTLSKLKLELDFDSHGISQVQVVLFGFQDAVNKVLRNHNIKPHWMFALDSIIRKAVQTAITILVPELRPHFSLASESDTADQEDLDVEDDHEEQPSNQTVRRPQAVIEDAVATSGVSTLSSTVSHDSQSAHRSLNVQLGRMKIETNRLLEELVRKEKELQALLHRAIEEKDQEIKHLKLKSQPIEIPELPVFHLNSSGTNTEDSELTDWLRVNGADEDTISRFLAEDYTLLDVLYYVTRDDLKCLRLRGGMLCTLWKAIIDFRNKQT
The test can be described thus: ASK1 Enzyme Assay. Here is the method: The protein kinase inhibitory activity of the compounds described herein were tested using the ASK1/MAP3K5 assay by Reaction Biology Corp. (Malvern, Pa.). The assay procedure follows (and is also available on the Reaction Biology Corp. website).Base Reaction Buffer: 20 mM Hepes (pH 7.5), 10 mM MgCl2, 1 mM EGTA,0.02% Brij35, 0.02 mg/mL BSA, 0.1 mM Na3VO4, 2 mM DTT, 1% DMSO;Substrate: 20 μM of myelin basic protein (MBP) and 10 μM ATP;Protein kinase: ASK1/MAP3K5.Reaction Procedure:1. Prepare indicated substrate in freshly prepared Base Reaction Buffer.2. Deliver any required cofactors to the substrate solution.3. Deliver indicated kinase into the substrate solution and gently mix.4. Deliver compounds in DMSO into the kinase reaction mixture by Acoustic; technology (Echo550; nanoliter range), incubate for 20 minutes at room temperature.5. Deliver 33P-ATP (specific activity 10 μCi/μL) into the reaction mixture to initiate the reaction.6. Incubate kinase reaction for 2 hours at room temperature.7. Reactions are spotted onto P81 ion exchange paper.8. Detect kinase activity by filter-binding method.

Regarding `C[C@@H]1CCCOc2ncc(-c3ccncc3)cc2C(=O)Nc2cccc(n2)-c2nncn21` [US11897898, Example 18], the IC50 entry was “in the range around 550 nM”. As for `C[C@@H]1CCCOc2ncc(N3CCOCC3)cc2C(=O)Nc2cccc(n2)-c2nncn21` [US11897898, Example 6], the IC50 entry is “in the range around 550 nM”.

Broadly, the IC50 is the concentration needed to halve the response being measured. Read a high IC50 as a need for much substance.
